Laboratory results reported in ChEMBL document CHEMBL5154702, “Synthesis and biological evaluation of aminobenzamides containing purine moiety as class I histone deacetylases inhibitors” (Bioorg Med Chem, 2022).
pIC50: −log10 of the molar value. Activity calls are given as the source filed them. No cut-off for these calls is given here.

Columns and labels:
HCT-116 [1] = assay: Induction of apoptosis in human HCT-116 cells assessed as necrotic cells at 0.5 uM measured after 24 hrs by Annexin V-FITC/propidium iodide staining based flow cytometry (reference value: 7.39%); assay type: functional
HCT-116 [2] = assay: Induction of apoptosis in human HCT-116 cells assessed as necrotic cells at 5 uM measured after 24 hrs by Annexin V-FITC/propidium iodide staining based flow cytometry (reference value: 7.39%); assay type: functional
SGC-7901 = assay: Antiproliferative activity against human SGC-7901 cells measured after 48 hrs by MTT assay; assay type: functional, cell-based; settings: SGC-7901, 48 h
HCT-116 [3] = assay: Cell cycle arrest in human HCT-116 cells assessed as accumulation of cells at G2/M phase at 10 uM measured after 12 hrs by propidium iodide staining based flow cytometry (reference value: 22.74%); assay type: functional
HCT-116 [4] = assay: Induction of cell morphological changes in human HCT-116 cells assessed as cell vacuolization at 0.5 to 5 uM measured after 24 hrs by phase contrast microscopy; assay type: functional, cell-based; settings: dose 0.5-5 µM
HCT-116 [5] = assay: Cell cycle arrest in human HCT-116 cells assessed as up regulation of Bax expression measured after 24 hrs by Western blot analysis; assay type: functional, cell-based; settings: dose 0.1-10 µM, DDE = dose-dependent effect
HCT-116 [6] = assay: Cell cycle arrest in human HCT-116 cells assessed as down regulation of CDK2 expression measured after 24 hrs by Western blot analysis; assay type: functional, cell-based; settings: dose 0.1-10 µM, DDE = dose-dependent effect
HCT-116 [7] = assay: Induction of apoptosis in human HCT-116 cells assessed as viable cells at 5 uM measured after 24 hrs by Annexin V-FITC/propidium iodide staining based flow cytometry (reference value: 87.3%); assay type: functional; settings: read-out: Activity
[8] = Half life in rat liver microsomes at 13.8 uM by HPLC analysis; assay type: ADME, Microsome
HepG2 = assay: cells; assay type: functional, cell-based; settings: Homo sapiens, HepG2, 48 h
A549 = assay: cells; assay type: functional, cell-based; settings: Homo sapiens, A549, 48 h
HCT-116 [9] = assay: Cell cycle arrest in human HCT-116 cells assessed as accumulation of cells at G0/G1 phase at 0.1 uM measured after 24 hrs by propidium iodide staining based flow cytometry (reference value: 58.05%); assay type: functional
HCT-116 [10] = assay: Cell cycle arrest in human HCT-116 cells assessed as up regulation of p21 expression at 5 uM by Western blot analysis; assay type: functional, cell-based; settings: time 6-48 hrs, TDE = time-dependent effect
[11] = target: T1, Histone deacetylase (Homo sapiens) (UniProt Q13547+O15379+Q9UBN7+Q92769+Q9UQL6+Q8WUI4+Q9BY41+Q96DB2+P56524+Q9UKV0+Q969S8); assay: Potency index, ratio of SAHA IC50 to test compound IC50 for inhibition of HDAC in human HeLa cell nuclear extracts using color de Lys as substrate
[12] = target: Histone deacetylase 1/2/3 (Homo sapiens) (UniProt Q13547+O15379+Q92769); assay: Inhibition of HDAC1/HDAC2/HDAC3 in human HCT-116 cells assessed as increase in accumulation of acetylated H3K9 measured after 24 hrs by Western blot analysis; assay type: cell-based; settings: dose 0.1-10 µM, DDE = dose-dependent effect
HCT-116 [13] = assay: Cell cycle arrest in human HCT-116 cells assessed as down regulation of Bcl-2 expression measured after 24 hrs by Western blot analysis; assay type: functional, cell-based; settings: dose 0.1-10 µM, DDE = dose-dependent effect
HCT-116 [14] = assay: Cell cycle arrest in human HCT-116 cells assessed as accumulation of cells at G2/M phase at 0.1 uM measured after 24 hrs by propidium iodide staining based flow cytometry (reference value: 22.74%); assay type: functional
HCT-116 [15] = assay: Cell cycle arrest in human HCT-116 cells assessed as accumulation of cells at G0/G1 phase at 0.5 uM measured after 24 hrs by propidium iodide staining based flow cytometry (reference value: 58.05%); assay type: functional
HCT-116 [16] = assay: Cell cycle arrest in human HCT-116 cells assessed as down regulation of CDK2 expression at 5 uM by Western blot analysis; assay type: functional, cell-based; settings: time 6-48 hrs, TDE = time-dependent effect
HCT-116 [17] = assay: Induction of apoptosis in human HCT-116 cells assessed as viable cells at 1 uM measured after 24 hrs by Annexin V-FITC/propidium iodide staining based flow cytometry (reference value: 87.3%); assay type: functional; settings: read-out: Activity
HCT-116 [18] = assay: Cell cycle arrest in human HCT-116 cells assessed as up regulation of p21 expression measured after 24 hrs by Western blot analysis; assay type: functional, cell-based; settings: dose 0.1-10 µM, DDE = dose-dependent effect
HCT-116 [19] = assay: Induction of apoptosis in human HCT-116 cells assessed as viable cells at 0.5 uM measured after 24 hrs by Annexin V-FITC/propidium iodide staining based flow cytometry (reference value: 87.3%); assay type: functional; settings: read-out: Activity
Histone deacetylase = assay type: cell-based, Homo sapiens; settings: hela
HCT-116 [20] = assay: Induction of cell morphological changes in human HCT-116 cells assessed as cell fragmentation at 0.5 to 5 uM measured after 24 hrs by phase contrast microscopy; assay type: functional, cell-based; settings: dose 0.5-5 µM
HCT-116 [21] = assay: Cell cycle arrest in human HCT-116 cells assessed as increase in accumulation of cells at G0/G1 phase measured after 24 hrs by propidium iodide staining based flow cytometry; assay type: functional; settings: dose 0.1-10 µM, DDE = dose-dependent effect
HCT-116 [22] = assay: Cell cycle arrest in human HCT-116 cells assessed as accumulation of cells at G0/G1 phase at 10 uM measured after 24 hrs by propidium iodide staining based flow cytometry (reference value: 58.05%); assay type: functional
HCT-116 [23] = assay: Induction of apoptosis in human HCT-116 cells assessed as late apoptotic cells at 5 uM measured after 24 hrs by Annexin V-FITC/propidium iodide staining based flow cytometry (reference value: 3.43%); assay type: functional
HCT-116 [24] = assay: Cell cycle arrest in human HCT-116 cells assessed as accumulation of cells at G0/G1 phase at 10 uM measured after 12 hrs by propidium iodide staining based flow cytometry (reference value: 58.05%); assay type: functional
HCT-116 [25] = assay: Induction of apoptosis in human HCT-116 cells assessed as early apoptotic cells at 1 uM measured after 24 hrs by Annexin V-FITC/propidium iodide staining based flow cytometry (reference value: 1.87%); assay type: functional
K562 = assay: cells; assay type: functional, cell-based; settings: Homo sapiens, K562, 48 h
[26] = target: T1, Histone deacetylase (Homo sapiens); assay: Potency index, ratio of MS-275 IC50 to test compound IC50 for inhibition of HDAC in human HeLa cell nuclear extracts using color de Lys as substrate
MDA-MB-231 = assay: Potency index, ratio of MS-275 IC50 to test compound IC50 for antiproliferative activity against human MDA-MB-231 cells; assay type: functional
Histone deacetylase 4 = Histone deacetylase 4 (Homo sapiens, UniProt P56524); assay: Inhibition of recombinant human N-terminal GST-fused/C-terminal His-tagged HDAC4 (627 to 1084 residues) expressed in baculovirus infected Sf9 insect cells using fluorogenic HDAC class 2a substrate measured after 30 mins by fluorimetry
HCT-116 [27] = assay: Cell cycle arrest in human HCT-116 cells assessed as accumulation of cells at G2/M phase at 0.5 uM measured after 24 hrs by propidium iodide staining based flow cytometry (reference value: 22.74%); assay type: functional
[28] = Intrinsic clearance in rat liver microsomes assessed per mg protein at 13.8 uM by HPLC analysis; assay type: ADME, Microsome
HCT-116 [29] = assay: Cell cycle arrest in human HCT-116 cells assessed as down regulation of cyclin D1 expression at 5 uM by Western blot analysis; assay type: functional, cell-based; settings: time 6-48 hrs, TDE = time-dependent effect

Histone deacetylase 4, sequence (P56524 whole entry, the tested form may be a part): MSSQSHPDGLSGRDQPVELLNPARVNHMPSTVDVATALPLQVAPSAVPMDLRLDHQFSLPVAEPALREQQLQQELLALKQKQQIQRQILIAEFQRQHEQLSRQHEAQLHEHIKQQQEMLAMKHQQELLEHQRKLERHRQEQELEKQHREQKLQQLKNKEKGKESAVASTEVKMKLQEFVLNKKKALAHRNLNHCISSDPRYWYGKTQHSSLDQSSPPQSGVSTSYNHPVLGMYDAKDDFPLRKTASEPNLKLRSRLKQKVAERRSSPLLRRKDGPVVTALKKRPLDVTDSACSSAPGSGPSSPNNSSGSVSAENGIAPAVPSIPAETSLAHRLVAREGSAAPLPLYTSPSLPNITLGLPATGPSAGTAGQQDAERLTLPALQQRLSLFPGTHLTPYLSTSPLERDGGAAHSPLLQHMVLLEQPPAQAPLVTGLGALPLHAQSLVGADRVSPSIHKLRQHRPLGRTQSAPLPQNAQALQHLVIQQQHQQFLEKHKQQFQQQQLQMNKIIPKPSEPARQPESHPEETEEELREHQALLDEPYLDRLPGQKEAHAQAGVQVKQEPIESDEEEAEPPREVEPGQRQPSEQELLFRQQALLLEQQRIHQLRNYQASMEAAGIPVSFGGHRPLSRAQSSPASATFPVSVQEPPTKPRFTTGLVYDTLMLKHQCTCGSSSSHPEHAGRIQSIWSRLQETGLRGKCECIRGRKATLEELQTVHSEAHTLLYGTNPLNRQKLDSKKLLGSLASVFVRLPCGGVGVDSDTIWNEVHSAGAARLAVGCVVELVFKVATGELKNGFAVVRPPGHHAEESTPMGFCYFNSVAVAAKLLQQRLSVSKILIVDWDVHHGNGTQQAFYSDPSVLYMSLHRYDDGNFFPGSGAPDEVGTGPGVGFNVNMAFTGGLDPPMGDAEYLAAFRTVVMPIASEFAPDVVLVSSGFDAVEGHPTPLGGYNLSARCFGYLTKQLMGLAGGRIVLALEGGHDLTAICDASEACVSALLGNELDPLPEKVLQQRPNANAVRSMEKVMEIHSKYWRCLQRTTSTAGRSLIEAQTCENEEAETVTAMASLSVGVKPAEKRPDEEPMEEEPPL

pIC50 (SGC-7901): 5.82 | half-life at 13.8 µM [8]: 1.2 h | pIC50 (HepG2): 5.89 | pIC50 (A549): 5.78 | Ratio IC50 [11]: 4 | inhibition [12]: Dde | IC50 (Histone deacetylase): 0.0275 µM | pIC50 (K562): 6.92 | Ratio IC50 [26]: 19 | CLint [28]: 9.6 µL/min/mg
SMILES: CCCCNc1nc(Cl)nc2c1ncn2Cc1ccc(C(=O)Nc2ccccc2N)cc1
Activity (HCT-116 [1]): 0.442% | Activity (HCT-116 [2]): 0.902% | Activity (HCT-116 [3]): 18.82% | Activity (HCT-116 [4]): Active | Activity (HCT-116 [5]): Dde | Activity (HCT-116 [6]): Dde | viability at 5 µM (HCT-116 [7]): 18.4% | Activity (HCT-116 [9]): 59.1% | Activity (HCT-116 [10]): Tde | Activity (HCT-116 [13]): Dde | Activity (HCT-116 [14]): 23.95% | Activity (HCT-116 [15]): 64.42% | Activity (HCT-116 [16]): Tde | viability at 1 µM (HCT-116 [17]): 40.4% | Activity (HCT-116 [18]): Dde | viability at 0.5 µM (HCT-116 [19]): 64.3% | Activity (HCT-116 [20]): Active | Activity (HCT-116 [21]): Dde | Activity (HCT-116 [22]): 73.05% | Activity (HCT-116 [23]): 10.1% | Activity (HCT-116 [24]): 71.11% | Activity (HCT-116 [25]): 49.4% | Ratio IC50 (MDA-MB-231): 4 | pIC50 (Histone deacetylase 4): < 4.00 | Activity (HCT-116 [27]): 20.23% | Activity (HCT-116 [29]): Tde
